Experimental data: patent publication US20240252499A1, “Treatment of uremic pruritus” (CymaBay Therapeutics, Inc., priority 2023, published 2024)
Read-outs that look alike come from different tables or passages of the source. Blank lines part the entries; values can stand above or below the compound they belong to.

How the values were obtained:
[1] = Example 4: oral seladelpar in uremic pruritus; type: in vivo, human; conditions: oral 5, 10, 25 and 50 mg/day; end-stage renal disease on hemodialysis
Experimental: Subjects are permitted their usual other medications. […] At each visit, the subjects are assessed for their disease symptoms and biomarkers, and assessed for uremic pruritus. The subjects also maintain health diaries, which are reviewed at each visit.

[2] = tested on: human IL-31; assay: Serum human IL-31 in PXB mice (humanized liver) after 19 days of dosing; type: in vivo, PXB mouse; conditions: gavage once/day for 19 days, 2 h after last dose; day 0 0.13 pg/mL
Description: The PXB mouse (PhoenixBio Co., Ltd., Higashi-Hiroshima, Japan) is a chimeric mouse with a humanized liver, produced by transplanting human hepatocytes into the albumin enhancer/promoter-urokinase-type plasminogen activator complementary DNA transgenic/SCID mouse. The mouse has its liver repopulated by human hepatocytes at a ratio of more than 70%, typically 85-90%, as assessed by measuring the ratio of human albumin to mouse albumin in the blood. The transplanted human hepatocytes express a variety of human messenger RNA (mRNA) and proteins, in a similar manner to those of the normal human liver. […] The study was conducted at PhoenixBio. Male PXB mice aged about 25 weeks, kept in single animal cages and fed CRF1 mouse chow supplemented with AS primate chow for vitamin C supplementation (both from Oriental Yeast Co., Ltd., Tokyo, Japan), were randomized into groups (10/group) based on mean values for body weight and blood human albumin concentration. […] Two hours after the last dose, each mouse was anesthetized with isoflurane, at least 400 μL blood was collected by cardiac puncture, and the mouse sacrificed by exsanguination. The blood samples were left to coagulate at room temperature for at least 5 minutes, then centrifuged at 13200×g for 3 minutes at 4 °C to obtain serum, which was analyzed for human IL-31.

[3] = tested on: IL-31; assay: ENHANCE phase 3 study in PBC (NCT03602560): serum IL-31; type: in vivo, human; conditions: 12 weeks, p<0.001
Description: The trial subjects in this phase 3 study were adult, male or female, with a diagnosis of PBC. Exclusion criteria included AST or ALT≥3×ULN, total bilirubin (TBIL)≥2×ULN, autoimmune hepatitis or a history of chronic viral hepatitis, PSC, the current use of fibrates or simvastatin, the use of colchicine, methotrexate, azathioprine, or systemic steroids in the previous two months, the use of an experimental treatment for PBC, and the use of an experimental or unapproved immunosuppressant. […] Serum IL-31 and its correlation with patient-reported pruritus numerical rating scale (NRS, 0-10) were assessed. Baseline IL-31 levels positively correlated with pruritus NRS; r=0.54, p<0.0001). […] IL-31 compared to subjects with pruritus NRS<4 (7.6 pg/mL [1.2, 14.5] vs 1.2 pg/mL [0.3, 2.8], p<0.0001). At baseline, IL-31 was also correlated with serum total bile acids (r=0.54, p<0.0001) and alkaline phosphatase (ALP) (r=0.44, p<0.0001).

[4] = tested on: IL-31 production by CD4 T cells; assay: IL-31 production by CD4 T cells under Th2-promoting conditions; type: cell-based, human; conditions: for IL-31 concentration in culture medium, mean: 10 μM seladelpar
Experimental: CD4 T cells were enriched from peripheral blood mononuclear cells collected from two normal healthy donors, using the EasySep™ Human CD4+ T Cell Isolation Kit ([…] Technologies). 100,000 CD4 T cells were seeded in a U-bottom 96-well-plate well, and cultured in Th2-promoting conditions promoted by IL-4 or IL-33. […] On day 5 of culture, the anti-CD3/CD28 beads were diluted by adding 150 μL TCM. From days 5 to 13, the cells were cultured in the presence of the same reagents as for days 1 to 4 plus 50 ng/ml IL-2; and the cell culture medium was renewed every 2-3 days by a change of 50% volume of the medium. On day 13 or day 14, the expanded T cells in an individual well were split to four to six wells of 96-well-plate wells; and 5 ng/mL phorbol myristate acetate and 500 ng/mL ionomycin were added for 3 days to re-activate the T cells. The IL-31 concentration in the culture medium of each well was determined using the V-PLEX Human IL-31 Kit (Meso Scale Diagnostics, LLC; Rockville, MD, USA).

[5] = target: T1, peroxisome proliferator-activated receptor-α (Homo sapiens, UniProt Q07869); assay: Specificity of seladelpar for PPARδ compared with PPARα; type: biochemical; conditions: PPARδ vs PPARα
T1 sequence (Q07869 1-468): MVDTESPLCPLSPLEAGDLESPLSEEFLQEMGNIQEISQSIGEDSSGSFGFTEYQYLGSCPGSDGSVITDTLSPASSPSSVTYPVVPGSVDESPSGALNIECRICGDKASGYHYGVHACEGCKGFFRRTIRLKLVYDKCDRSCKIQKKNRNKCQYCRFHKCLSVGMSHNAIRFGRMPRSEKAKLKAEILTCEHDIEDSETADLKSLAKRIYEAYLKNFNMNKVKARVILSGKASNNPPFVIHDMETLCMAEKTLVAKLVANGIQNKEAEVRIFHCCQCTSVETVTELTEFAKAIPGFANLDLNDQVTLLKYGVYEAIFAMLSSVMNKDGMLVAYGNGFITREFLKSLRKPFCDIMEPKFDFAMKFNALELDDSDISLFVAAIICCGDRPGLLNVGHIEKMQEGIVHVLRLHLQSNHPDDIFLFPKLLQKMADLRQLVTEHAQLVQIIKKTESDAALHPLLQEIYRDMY
Description: It is specific (>600-fold and >2500-fold compared with peroxisome proliferator-activated receptor-α and peroxisome proliferator-activated receptor-γ receptors). PPARδ activation stimulates fatty acid oxidation and utilization, improves plasma lipid and lipoprotein metabolism, glucose utilization, and mitochondrial respiration, and preserves stem cell homeostasis.

[6] = Studies of oral seladelpar in PBC; type: in vivo, human
[7] = Example 5: topical seladelpar in uremic pruritus; type: in vivo, human; conditions: topical ointment 1, 2, 5 or 10%; end-stage renal disease on hemodialysis
Experimental: Subjects are permitted their usual other medications. […] At each visit, the subjects are assessed for their disease symptoms and biomarkers, and assessed for pruritus. The subjects also maintain health diaries, which are reviewed at each visit.

[8] = tested on: IL-31; conditions: NASH patients; cited from earlier work
[9] = tested on: IL-31; conditions: humanized liver murine model; cited from earlier work
[10] = 12-month trial, PBC patients, cited from earlier work
[11] = Example 7: topical mavodelpar in uremic pruritus; type: in vivo, human; conditions: topical ointment 1, 2, 5 or 10%; end-stage renal disease on hemodialysis
Experimental: Adult subjects with end-stage renal disease on routine hemodialysis are treated topically with an ointment containing 1, 2, 5, or 10% of mavodelpar. Subjects are permitted their usual other medications. The subjects are assessed before the study, and at intervals during the study, such as every 4 weeks during the study and 4 weeks after the last dose of the mavodelpar therapy, for safety and pharmacodynamic evaluations. At each visit, the subjects are assessed for their disease symptoms and biomarkers, and assessed for pruritus. The subjects also maintain health diaries, which are reviewed at each visit.

[12] = target: T2, PPARy (Homo sapiens, UniProt P37231); conditions: read-out: ECso for PPARy; cited from earlier work
T2 sequence (P37231 1-505): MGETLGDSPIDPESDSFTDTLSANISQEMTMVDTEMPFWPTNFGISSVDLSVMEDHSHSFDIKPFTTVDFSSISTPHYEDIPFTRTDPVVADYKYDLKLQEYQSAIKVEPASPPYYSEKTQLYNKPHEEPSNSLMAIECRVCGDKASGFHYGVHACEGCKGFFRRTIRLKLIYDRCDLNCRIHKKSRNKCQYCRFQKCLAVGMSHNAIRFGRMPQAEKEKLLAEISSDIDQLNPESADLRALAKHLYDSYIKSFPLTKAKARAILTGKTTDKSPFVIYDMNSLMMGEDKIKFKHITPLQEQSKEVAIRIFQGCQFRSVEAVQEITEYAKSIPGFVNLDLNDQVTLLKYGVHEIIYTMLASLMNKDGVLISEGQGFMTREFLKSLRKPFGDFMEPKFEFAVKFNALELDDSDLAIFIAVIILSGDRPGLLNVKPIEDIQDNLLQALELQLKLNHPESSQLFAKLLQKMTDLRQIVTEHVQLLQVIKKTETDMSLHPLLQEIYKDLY

[13] = target: T3, PPARa (Homo sapiens, UniProt Q07869); conditions: read-out: ECso for PPARa; cited from earlier work
T3 sequence (Q07869 1-468): T1 sequence (Q07869 1-468)

[14] = Example 6: oral mavodelpar in uremic pruritus; type: in vivo, human; conditions: oral 5, 10, 25, 50 and 100 mg/day; end-stage renal disease on hemodialysis
Experimental: Adult subjects with end-stage renal disease on routine hemodialysis are treated orally with doses of 5, 10, 25, 50, and 100 mg/day of mavodelpar. Subjects are permitted their usual other medications. The subjects are assessed before the study, and at intervals during the study, such as every 4 weeks during the study and 4 weeks after the last dose of the mavodelpar therapy, for safety and pharmacodynamic evaluations. At each visit, the subjects are assessed for their disease symptoms and biomarkers, and assessed for uremic pruritus. The subjects also maintain health diaries, which are reviewed at each visit.

specificity compared with peroxisome proliferator-activated receptor-α [5]: > 600 fold
effect on cholestatic pruritus (exacerbation) ([6]; oral doses of 5, 10, 50 and 200 mg/day in PBC): not to exacerbate cholestatic pruritus
Compound: CCO[C@H](COc1ccc(C(F)(F)F)cc1)CSc1ccc(OCC(=O)O)c(C)c1 [seladelpar, [4-({(2R)-2-ethoxy-3-[4-(trifluoromethyl)phenoxy]propyl}sulfanyl)-2-methylphenoxy]acetic acid]
uremic pruritus [1]: improvement in their uremic pruritus
serum IL-31 concentration [2]: 0.19 pg/mL
mean IL-31 level at end of study ([3]; 5 mg/day oral, from 3.8 pg/mL at baseline): 1.7 pg/mL
mean IL-31 level at end of study ([3]; 10 mg/day oral, from 4.2 pg/mL at baseline): 1.7 pg/mL
IL-31 concentration in culture medium, mean ([4]; Donor 1, IL-4 promoted): 36.00 pg/mL
IL-31 concentration in culture medium, mean ([4]; Donor 1, IL-33 promoted): 10.14 pg/mL
IL-31 concentration in culture medium, mean ([4]; Donor 2, IL-4 promoted): 27.28 pg/mL
IL-31 concentration in culture medium, mean ([4]; Donor 2, IL-33 promoted): 324.05 pg/mL
effect on IL-31 production by CD4 T cells ([4]; both donors, both promoters, p<0.0001 vs DMSO, Mann-Whitney): reduced IL-31 production
efficacy in PBC ([6]; oral doses of 5, 10, 50 and 200 mg/day): effective in the treatment of PBC
efficacy in cholestatic pruritus associated with PBC ([6]; oral doses of 5 and 10 mg/day): effective in the treatment of cholestatic pruritus
effect on IL-31 ([6]; studies in PBC): reduce IL-31
uremic pruritus [7]: improvement in their uremic pruritus

Compound: O=C(O)c1ccnc(N2CC(O)(c3ccc(OCc4c(-c5c(Cl)cccc5Cl)noc4C4CC4)cc3Cl)C2)c1 [cilofexor]
effect on IL-31 [8]: increased IL-31

Compound: CC[C@H]1[C@@H](O)[C@@H]2[C@H](CC[C@]3(C)[C@@H]([C@H](C)CCC(=O)O)CC[C@@H]23)[C@@]2(C)CC[C@@H](O)C[C@@H]12 [obeticholic acid]
mRNA expression in human hepatocytes [9]: increased
serum IL-31 concentration [2]: 3.7 pg/mL
patients with severe pruritus ([10]; OCALIVA 10 mg arm): 23%
patients with severe pruritus ([10]; OCALIVA titration arm): 19%

Compound: Cc1cc(OC/C=C(/c2ccc(F)cc2)c2ccc(C#CCN3CCOCC3)cc2)ccc1OCC(=O)O [mavodelpar, (4-{[(2E)-3-(4-fluorophenyl)-3-{4-[3-(morpholin-4-yl)prop-1-yn-1-yl]phenyl}prop-2-en-1-yl]oxy}-2-methylphenoxy)acetic acid]
uremic pruritus [11]: improvement in their uremic pruritus
EC50 [12]: > 10 µM
EC50 [13]: > 10 µM
uremic pruritus [14]: improvement in their uremic pruritus
